Experimental data: patent US20260042753A1 (Merck Patent GmbH, priority 2019, published 2026)

What was measured:
[1] = biological target: mutant cKIT (560-576 and V654A) in GIST430/654 cell line (Homo sapiens (Human), UniProt P10721, DEL560-576/V654A); experiment: Cellular testing of cKIT mutant inhibitors: phospho-Y307-cKIT Luminex assay in GIST430/654 cells; assay type: cell-based; settings: Table 1; cKIT autophosphorylation, compounds 45 min; read-out: GIST 430/654 IC50
Method in brief: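 GIST430/654 cells carrying constitutively active cKIT (Δ560-576/V654A) were grown with 100 nM imatinib, then treated with serially diluted compound for 45 min. Lysates were captured on anti-total-cKIT Luminex beads overnight at 4 °C and probed for phospho-Y307-cKIT. IC50 was fitted from percent of 0.3% DMSO control.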

[2] = biological target: c-Kit(V654A) (Homo sapiens, UniProt P10721, V654A); experiment: c-Kit(V654A) assay; assay type: biochemical; settings: Table 1; 200 μM ATP
Method in brief: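 Radiometric filter-binding read-out: after 3% phosphoric acid stop, peptide-incorporated 33P on filtermat scintillation-counted. Enzyme: human c-Kit V654A, residues 544–end, N-terminal GST fusion.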

Sequence of mutant cKIT (560-576 and V654A) in GIST430/654 cell line (P10721 other isoform, or with tags, fused parts or gaps V654A/del 1-25/del 560-576 limits assumed): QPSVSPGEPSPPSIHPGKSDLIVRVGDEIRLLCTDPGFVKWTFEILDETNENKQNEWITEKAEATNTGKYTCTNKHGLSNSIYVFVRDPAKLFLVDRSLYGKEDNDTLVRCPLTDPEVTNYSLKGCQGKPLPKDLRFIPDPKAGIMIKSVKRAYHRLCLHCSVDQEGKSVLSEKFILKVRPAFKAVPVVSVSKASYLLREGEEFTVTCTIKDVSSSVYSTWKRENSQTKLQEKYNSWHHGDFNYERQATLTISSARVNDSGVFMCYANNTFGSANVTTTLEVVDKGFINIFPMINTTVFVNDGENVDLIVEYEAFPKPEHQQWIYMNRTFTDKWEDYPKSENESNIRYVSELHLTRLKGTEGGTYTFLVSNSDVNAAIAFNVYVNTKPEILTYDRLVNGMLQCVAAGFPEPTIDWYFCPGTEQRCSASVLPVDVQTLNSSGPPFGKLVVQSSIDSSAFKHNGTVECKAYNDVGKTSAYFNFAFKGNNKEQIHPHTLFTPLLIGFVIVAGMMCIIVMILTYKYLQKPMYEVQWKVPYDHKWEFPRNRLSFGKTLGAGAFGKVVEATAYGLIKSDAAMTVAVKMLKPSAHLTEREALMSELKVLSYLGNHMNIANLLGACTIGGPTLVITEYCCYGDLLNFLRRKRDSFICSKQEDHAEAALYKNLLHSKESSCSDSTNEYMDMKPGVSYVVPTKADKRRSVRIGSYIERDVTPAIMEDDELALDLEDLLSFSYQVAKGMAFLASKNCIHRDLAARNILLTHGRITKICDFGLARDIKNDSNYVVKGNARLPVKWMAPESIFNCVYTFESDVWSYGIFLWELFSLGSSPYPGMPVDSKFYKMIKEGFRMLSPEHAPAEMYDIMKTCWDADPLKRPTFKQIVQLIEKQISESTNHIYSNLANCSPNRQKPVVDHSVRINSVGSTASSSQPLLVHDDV

SMILES | IC50 [1] | IC50 [2]
COCCOc1cc2[nH]nc(-c3cc(-c4ccc(C(=O)N5C6COCC5C6)cc4)no3)c2cc1F [A182, 5-fluoro-6-(2-methoxyethoxy)-3-[3-(4-{3-oxa-6-azabicyclo[3.1.1]heptane-6-carbonyl}phenyl)-1,2-oxazol-5-yl]-1H-indazole] | 38 nM | 0.94 nM
COCCOc1cc2[nH]nc(-c3cc(-c4ccc(C(=O)N5CCN([C@@H]6CCOC6)CC5)cc4)no3)c2cc1F [A185, 5-fluoro-6-(2-methoxyethoxy)-3-[3-(4-{4-[(3R)-oxolan-3-yl]piperazine-1-carbonyl}phenyl)-1,2-oxazol-5-yl]-1H-indazole] | 60 nM | 1.1 nM
COCCOc1cc2[nH]nc(-c3cc(-c4ccc(C(=O)N5CCN([C@H]6CCOC6)CC5)cc4)no3)c2cc1F [A186, 5-fluoro-6-(2-methoxyethoxy)-3-[3-(4-{4-[(3S)-oxolan-3-yl]piperazine-1-carbonyl}phenyl)-1,2-oxazol-5-yl]-1H-indazole] | 48 nM | 1.1 nM
COCCOc1cc2[nH]nc(-c3cc(-c4ccc(C(=O)N5CCN(C6CCOCC6)CC5)cc4)no3)c2cc1F [A188, 5-fluoro-6-(2-methoxyethoxy)-3-(3-{4-[4-(oxan-4-yl)piperazine-1-carbonyl]phenyl}-1,2-oxazol-5-yl)-1H-indazole] | 34 nM | 0.61 nM
COCCOc1cc2[nH]nc(-c3cc(-c4ccc(C(=O)N5CCN(C6COC6)C[C@H]5C)cc4)no3)c2cc1F [A190, 5-fluoro-6-(2-methoxyethoxy)-3-(3-{4-[(2R)-2-methyl-4-(oxetan-3-yl)piperazine-1-carbonyl]phenyl}-1,2-oxazol-5-yl)-1H-indazole] | 55 nM | 1.6 nM
COCCOc1cc2[nH]nc(-c3cc(-c4ccc(C(=O)N5CCN(C6COC6)C[C@@H]5C)cc4)no3)c2cc1F [A191, 5-fluoro-6-(2-methoxyethoxy)-3-(3-{4-[(2S)-2-methyl-4-(oxetan-3-yl)piperazine-1-carbonyl]phenyl}-1,2-oxazol-5-yl)-1H-indazole] | 58 nM | 1.8 nM
COCCOc1cc2[nH]nc(-c3cc(-c4ccc(C(=O)N5CCN(C6COC6)CC5)c(C)c4)no3)c2cc1F [A193, (4-{5-[5-fluoro-6-(2-methoxy-ethoxy)-1H-indazol-3-yl]-isoxazol-3-yl}-2-methyl-phenyl)-(4-oxetan-3-yl-piperazin-1-yl)-methanone] | 73 nM | 2.5 nM
COCCOc1cc2[nH]nc(-c3cc(-c4ccc(C(=O)N5CCN(C6COC6)CC5)cc4)no3)c2cc1Cl [A194, (4-{5-[5-chloro-6-(2-methoxy-ethoxy)-1H-indazol-3-yl]-isoxazol-3-yl}-phenyl)-(4-oxetan-3-yl-piperazin-1-yl)-methanone] | 44 nM | 0.78 nM
COCCOc1cc2[nH]nc(-c3cc(-c4ccc(C(=O)N5CCN(C6COC6)CC5)c(F)c4)no3)c2cc1F [A196, (2-fluoro-4-{5-[5-fluoro-6-(2-methoxy-ethoxy)-1H-indazol-3-yl]-isoxazol-3-yl}-phenyl)-(4-oxetan-3-yl-piperazin-1-yl)-methanone] | 48 nM | 3.8 nM
COCCOc1cc2[nH]nc(-c3cc(-c4ccc(C(=O)N5CC(N6CCN(C7COC7)CC6)C5)cc4)no3)c2cc1F [A197, 5-fluoro-6-(2-methoxyethoxy)-3-[3-(4-{3-[4-(oxetan-3-yl)piperazin-1-yl]azetidine-1-carbonyl}phenyl)-1,2-oxazol-5-yl]-1H-indazole] | 87 nM | 1.9 nM
COCCOc1cc2[nH]nc(-c3cc(-c4ccc(C(=O)N5CC6(CCN(C7COC7)CC6)C5)cc4)no3)c2cc1F [A199, 2-(4-{5-[5-fluoro-6-(2-methoxyethoxy)-1H-indazol-3-yl]-1,2-oxazol-3-yl}benzoyl)-7-(oxetan-3-yl)-2,7-diazaspiro[3.5]nonane] | 28 nM | 0.76 nM

Further lines, results first:

IC50 [1] | IC50 [2] | SMILES
40 nM | 1 nM | COCCOc1cc2[nH]nc(-c3cc(-c4ccc(C(=O)N5CC(C)(N(C)C)C5)cc4)no3)c2cc1F [A181, 1-(4-{5-[5-fluoro-6-(2-methoxyethoxy)-1H-indazol-3-yl]-1,2-oxazol-3-yl}benzoyl)-N,N,3-trimethylazetidin-3-amine]
18 nM | 0.55 nM | COCCOc1cc2[nH]nc(-c3cc(-c4ccc(C(=O)N5Cc6ccncc6C5)cc4)no3)c2cc1F [A183, 5-fluoro-6-(2-methoxyethoxy)-3-[3-(4-{1H,2H,3H-pyrrolo[3,4-c]pyridine-2-carbonyl}phenyl)-1,2-oxazol-5-yl]-1H-indazole]
120 nM | 1.1 nM | COCCOc1cc2[nH]nc(-c3cc(-c4ccc(C(=O)N5CCOC[C@@H]5CS(C)(=O)=O)cc4)no3)c2cc1F [A184, (4-{5-[5-fluoro-6-(2-methoxy-ethoxy)-1H-indazol-3-yl]-isoxazol-3-yl}-phenyl)-((R)-3-methanesulfonylmethyl-morpholin-4-yl)-methanone]
290 nM | 1.4 nM | COCCOc1cc2[nH]nc(-c3cc(-c4ccc(C(=O)N5CC(N6CC7(COC7)C6)C5)cc4)no3)c2cc1F [A187, 5-fluoro-6-(2-methoxyethoxy)-3-f{3-[4-(3-f{2-oxa-6-azaspiro[3.3]heptan-6-yl}azetidine-1-carbonyl)phenyl]-1,2-oxazol-5-yl}-1H-indazole]
48 nM | 1.9 nM | COCCOc1cc2[nH]nc(-c3cc(-c4ccc(C(=O)N5CCO[C@@H](C)C5)cc4)no3)c2cc1F [A189, 5-fluoro-6-(2-methoxyethoxy)-3-(3-{4-[(2S)-2-methylmorpholine-4-carbonyl]phenyl}-1,2-oxazol-5-yl)-1H-indazole]
14 nM | 0.45 nM | COCCOc1cc2[nH]nc(-c3cc(-c4ccc(C(=O)N5CC(c6cccnc6)C5)cc4)no3)c2cc1F [A192, 5-fluoro-6-(2-methoxyethoxy)-3-(3-{4-[3-(pyridin-3-yl)azetidine-1-carbonyl]phenyl}-1,2-oxazol-5-yl)-1H-indazole]
710 nM | 14 nM | COCCOc1cc2[nH]nc(-c3cc(-c4ccc(C(=O)N5CC(c6nncn6CCOC)C5)cc4)no3)c2cc1F [A195, 5-fluoro-6-(2-methoxyethoxy)-3-[3-(4-{3-[4-(2-methoxyethyl)-4H-1,2,4-triazol-3-yl]azetidine-1-carbonyl}phenyl)-1,2-oxazol-5-yl]-1H-indazole]
73 nM | 0.92 nM | COCCOc1cc2[nH]nc(-c3cc(-c4ccc(C(=O)N5CCCN(C6COC6)CC5)cc4)no3)c2cc1F [A198, 5-fluoro-6-(2-methoxyethoxy)-3-(3-{4-[4-(oxetan-3-yl)-1,4-diazepane-1-carbonyl]phenyl}-1,2-oxazol-5-yl)-1H-indazole]
19 nM | 1.3 nM | COCCOc1cc2[nH]nc(-c3cc(-c4ccc(C(=O)N5CC(N6CCOC[C@@H]6C)C5)cc4)no3)c2cc1F [A200, 5-fluoro-6-(2-methoxyethoxy)-3-[3-(4-{3-[(3S)-3-methylmorpholin-4-yl]azetidine-1-carbonyl}phenyl)-1,2-oxazol-5-yl]-1H-indazole]
31 nM | 2 nM | COCCOc1cc2[nH]nc(-c3cc(-c4ccc(C(=O)N5CC(N6CCOC[C@H]6C)C5)cc4)no3)c2cc1F [A201, 5-fluoro-6-(2-methoxyethoxy)-3-[3-(4-{3-[(3R)-3-methylmorpholin-4-yl]azetidine-1-carbonyl}phenyl)-1,2-oxazol-5-yl]-1H-indazole]
